The values that follow come from patent US12251422B2, “Compositions and methods for treating neurological and other disorders” (Rush University Medical Center, priority 2018, dated 2025).

The test system of one test is 5×FAD Tg mice. In words: Neuronal apoptosis and plasticity-related molecules in hippocampus of 5×FAD Tg mice. Particulars: 0.1 mg/kg body wt/2 d intranasal, 30 d. In kind it is in vivo, mouse. An excerpt: FIG. 6 (A-N). Intranasal delivery of wtTIDM, but not mTIDM, peptide inhibits neuronal apoptosis in vivo in the hippocampus and improves memory and learning in Tg mice. […] After 30 d of treatment, mice were sacrificed and hippocampal sections were double-labeled for TUNEL & NeuN (A). […] Hippocampal extracts of all groups of mice (n=4) were immunoblotted for cleaved caspase 3 (D). Actin was run as loading control. E) Bands were scanned and values (cleaved caspase 3/Actin) are presented as relative to non-Tg control. […] Protein levels of PSD-95. NR2A and GluR1 were monitored in hippocampal extracts by Western blot (F). Bands were scanned and values (G, PSD-95/Actin; H, NR2A/Actin; I, GluR1/Actin) are presented as relative to non-Tg control. […] Mice were tested for Barnes maze (J, latency; K, number of errors made) and T maze (L, number of positive turns; M, number of negative turns). Short-term memory was also monitored by novel object recognition test, which is represented by discrimination index (N). Eight mice (n=8) were used in each group and results were analyzed by one-way ANOVA.
B6SJL-Tg (APPSwFlLon,PSEN1*M146L*L286V) 6799Vas/J transgenic (5×FAD or termed here as Tg) mice were purchased from Jackson Laboratories (Bar Harbor, ME). […] Briefly, TIDM peptides were dissolved in 5 μl normal saline, mice were hold in supine position and saline was delivered into one nostril using a pipetman.
It was performed using a commercially available kit (TdT FragEL™, Calbiochem) as described before (10, 22).

A further test relates to IL-1β and iNOS. In words: mRNA expression of IL-1β and iNOS in BV-2 microglial cells (RT-PCR, real-time PCR). Particulars: 10 μM peptide 1 h. In kind it is cell-based. How it is done:
FIG. 4(A-S). Effect of wtTIDM and mTIDM peptides on the induction of NF-κB activation and the expression of proinflammatory molecules in microglial cells. BV-2 microglial cells preincubated with 10 μM wtTIDM/mTIDM peptides for 1 h were stimulated with 1 μM fibrillar Aβ1-42 (A-C), 1 μM MPP+ (D-F), 250 ng/ml LTA (G-I), […] LPS (J-L), 1 μM flagellin (M-O), and 1 μM CpG DNA (P-R) under serum-free condition. After 1 h of stimulation, the activation of NF-κB was monitored in nuclear extracts by EMSA (A, fibrillar Aβ; D, MPP+; G, LTA; J, LPS; M, flagellin, P; CpG DNA). After 4 h of stimulation, the mRNA expression of IL-1β (B, E, H, K, N, & Q) and iNOS (C, F, I, L, O, & R) was monitored by real-time PCR (B-C, fibrillar Aβ; E-F, MPP+; H-I, LTA; K-L, LPS; N-O, flagellin; Q-R, CpG DNA) (n=2 replicates/dose in 3 independent experiments). ap<0.001 vs control; bp<0.001 vs stimuli by two-sample t-tests. […]
FIG. 13 (A-F). […] After 4 h of stimulation, the mRNA expression of IL-1β and iNOS was monitored by RT-PCR (n=2 replicates/condition in 3 independent experiments).
FIG. 14 (A-D). […] A) After 1 h of stimulation, the activation of NF-κB was monitored in nuclear extracts by EMSA. […]
DNase-digested RNA was analyzed by real-time PCR in the AβI-Prism7700 sequence detection system (Applied Biosystems, Foster City, CA) as described earlier (23, 57).

Take `CC[C@H](C)[C@H](NC(=O)[C@H](CCCCN)NC(=O)[C@@H](NC(=O)[C@H](CCC(N)=O)NC(=O)[C@H](CCCNC(=N)N)NC(=O)[C@@H](N)CC(=O)O)[C@@H](C)CC)C(=O)N[C@@H](Cc1c[nH]c2ccccc12)C(=O)N[C@@H](Cc1ccccc1)C(=O)N[C@@H](CCC(N)=O)C(=O)N[C@@H](CC(N)=O)C(=O)N[C@@H](CCCNC(=N)N)C(=O)N[C@@H](CCCNC(=N)N)C(=O)N[C@@H](CCSC)C(=O)N[C@@H](CCCCN)C(=O)N[C@@H](Cc1c[nH]c2ccccc12)C(=O)N[C@@H](CCCCN)C(=O)N[C@@H](CCCCN)C(=O)N1CCC[C@H]1C(=O)NCC(=O)N[C@@H](C)C(=O)N[C@@H](Cc1c[nH]cn1)C(=O)N[C@@H](CCC(N)=O)C(=O)N[C@@H](CCCCN)C(=O)O` [wtTIDM, drqikiwfqnrrmkwkkPGAHQK]: in the test with 5×FAD Tg mice, the “PSD-95, NR2A and GluR1 proteins in the hippocampus” value is recorded as “significant restoration”; the “elevated level of cleaved caspase 3 in the hippocampus” value is reported as “reduced”; the “neuronal apoptosis in the hippocampus (TUNEL & NeuN)” value was “attenuated”. Besides, in the test on IL-1β and iNOS (250 ng/ml LTA for 4 h), the “inhibition of expression of proinflammatory molecules (IL-1β, iNOS) induced by LTA” value is “inhibited”. Also, the “inhibition of expression of proinflammatory molecules (IL-1β, iNOS) induced by fibrillar Aβ” value in the test with IL-1β and iNOS (1 μM fibrillar Aβ1-42 for 4 h) is listed as “inhibited”.
